“Also recorded” adds a separate entry of the source.

Test [1] has as its system mouse splinted skin wound. The test can be described thus: mouse excisional splinted skin wound healing model, topical application. In kind it is in vivo. Conditions: daily topical application at 5 micromolar in 10% DMSO vehicle; FIG. 5. From the text:
FIGS. 1A-1B show wound healing in mouse excisional skin wound splinting model, wherein a splinting ring is tightly adhered to the skin around the wound, thereby preventing local skin contraction. The wound is thus healed through a process of granulation and re-epithelialization similar to that occurring in human. The figures present a time course healing of skin splinted wound in wild type (WT) (FIG. 1A) and Npas2 KO mice (FIG. 1B).
Skin of experimental animals such as mice are similarly composed of multiple tissues; however excisional wound heals faster in part due to active wound contraction. Therefore, mouse wound healing model employs a silicone stent around the excisional skin, which prevents contraction allowing the healing through re-epithelialization and granulation tissue formation. The mouse splinted skin wound model has provided a common experimental platform, which allows investigation of critical molecules for skin wound healing using genetically manipulated mice. Knockout mutation of wound inflammation related molecules such as Sphingosine kinase-1 or mast cell proteases was reported to delay the wound closure and the proliferative phase of healing, respectively.
High throughput screening (HTS) of well-defined chemical compounds was performed using Npas2-LacZ reporter mouse skin fibroblasts. […]

Test [2] deals with human periodontal ligament MSC (PDLSC). In words: in vitro osteogenic differentiation assay using human periodontal ligament stem cells (PDLSC). In kind it is cell-based. To be noted: supplementation of compound; FIG. 8.
Test [3] has as its system human dermal fibroblasts. The test can be described thus: in vitro collagen synthesis assay using human dermal fibroblasts. In kind it is cell-based. On the procedure: Without serotonin (5-HT) supplementation, the majority of selected compounds maintained fibroblastic collagen synthesis.
(§1) High throughput screening (HTS) of well-defined chemical compounds was performed using Npas2-LacZ reporter mouse skin fibroblasts. Chemical genomics analysis of hit compounds indicated the involvement of monoamine-related pathways for regulating Npas2 expression. To identify the regulatory mechanism of Npas2 in human dermal fibroblasts, a library of lentivirus expression vectors containing human monoamine-related genes was selected for over-expression study.

For test [4], the system named is Npas2. In words: Npas2 expression in human dermal fibroblasts. It is filed as cell-based. To be noted: serotonin supplementation; FIG. 9F. As for the experimental part: FIGS. 9A-9G show the effect of HTR1B and HTR2B on human dermal fibroblasts.
as §1

As to `CN1CCC(=C2c3ccccc3C=Cc3ccccc32)CC1` [Cyproheptadine, 1-methyl-4-(2-tricyclo[9.4.0.03,8]pentadeca-1(15),3,5,7,9,11,13-heptaenylidene)piperidine], in test [1], the “wound closure and skin tissue regeneration” value is “significant wound closure and skin tissue regeneration”.

For `N#Cc1cc(CN2CCC(Nc3ncnc4sc(Cl)cc34)CC2)ccc1F` [PRX-08066, 5-[[4-[(6-chlorothieno[2,3-d]pyrimidin-4-yl)amino]piperidin-1-yl]methyl]-2-fluorobenzonitrile], the “wound closure and skin tissue regeneration” value in test [1] was “significant wound closure and skin tissue regeneration”. Moreover, the “osteogenic differentiation of PDLSC” value in test [2] is reported as “effective compound; also recorded: enhanced the differentiation of PDLSC”. Besides, the fibroblastic collagen synthesis entry in test [3] (in the presence of 10 μM 5-HT supplementation, FIG. 4) is on record as “high level of collagen synthesis”.

`NCCc1c[nH]c2ccc(O)cc12` [serotonin]: in test [3] (serotonin supplementation, FIG. 9E), the “in vitro collagen synthesis of human dermal fibroblasts” value is “decreased”. Moreover, in test [4], the “Npas2 expression of human dermal fibroblasts” value is listed as “increased”.

These data come from patent publication US20240245693A1, “COMPOSITIONS AND METHODS OF TISSUE REGENERATION THERAPY” (The Regents of the University of California, priority 2021, published 2024).
